Laboratory results as given in the supplement of paper PMC10307832.

Columns and labels:
Assay in all cases: relative viability (nuclei count vs DMSO), 5 days (fraction); higher = more cells survive
[1] = compound: N[C@@H]1CCCN(c2c(/C=C3\SC(=O)NC3=O)cccc2-c2ccccc2)C1 [AZD1208] + CCNC(=O)c1noc(-c2cc(C(C)C)c(O)cc2O)c1-c1ccc(CN2CCOCC2)cc1 [Luminespib] (partner 0.01 µM)
Method in brief: (§1)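 Five library-drug doses in √10 steps were combined with a fixed anchor-drug dose, or a single drug was given alone, by pin tool to lung cancer cell lines in 1536-well plates the day after seeding. Nuclei were stained and counted after 5 days. Relative viability is the nuclei count in treated wells over that in vehicle wells, taken as the median of duplicate plates.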

[2] = compound: N[C@@H]1CCCN(c2c(/C=C3\SC(=O)NC3=O)cccc2-c2ccccc2)C1 [AZD1208] + Cc1nc(NC(=O)N2CCC[C@H]2C(N)=O)sc1-c1ccnc(C(C)(C)C(F)(F)F)c1 [Alpelisib] (partner 2 µM)
Method in brief: as §1

[3] = compound: CN1CCN(CC1)C2=CC(=C(C=C2)NC3=NC(=C(S3)C(=O)C4=C(C=CC=C4Cl)Cl)N)OC [XMD14-99] + N=C(N)NC(=N)NCCc1ccccc1 [Phenformin] (partner 250 µM)
Method in brief: as §1

[4] = compound: CN1CCN(CC1)C2=CC(=C(C=C2)NC3=NC(=C(S3)C(=O)C4=C(C=CC=C4Cl)Cl)N)OC [XMD14-99] + CC1(C)CCC(c2ccc(Cl)cc2)=C(CN2CCN(c3ccc(C(=O)NS(=O)(=O)c4ccc(N[C@H](CCN5CCOCC5)CSc5ccccc5)c(S(=O)(=O)C(F)(F)F)c4)cc3)CC2)C1 [Navitoclax] (partner 0.5 µM)
Method in brief: as §1

Cell Line | relative viability ([1]; first compound 0.08 µM) | relative viability ([1]; first compound 0.253 µM) | relative viability ([1]; first compound 0.8 µM) | relative viability ([1]; first compound 2.53 µM) | relative viability ([1]; first compound 8 µM) | relative viability ([2]; first compound 0.08 µM) | relative viability ([2]; first compound 0.253 µM) | relative viability ([2]; first compound 0.8 µM) | relative viability ([2]; first compound 2.53 µM) | relative viability ([2]; first compound 8 µM) | relative viability ([3]; first compound 0.08 µM) | relative viability ([3]; first compound 0.8 µM) | relative viability ([3]; first compound 2.53 µM) | relative viability ([3]; first compound 8 µM) | relative viability ([4]; first compound 0.08 µM) | relative viability ([4]; first compound 0.8 µM) | relative viability ([4]; first compound 2.53 µM) | relative viability ([4]; first compound 8 µM)
201T | 1.07 | 1.02 | 0.961 | 1.12 | 0.98 | 1.04 | 0.948 | 0.919 | 1.04 | 0.976 | 0.449 | 0.441 | 0.422 | 0.41 | 1.18 | 1.17 | 1.11 | 1.15
A549 |  |  |  |  |  | 0.676 | 0.622 | 0.48 | 0.687 | 0.448 | 0.153 | 0.16 | 0.0976 | 0.133 | 1.14 | 1.13 | 1.03 | 0.724
A-427 | 0.788 | 1 | 0.829 | 0.762 | 0.712 | 1.02 | 1.07 | 1.02 | 1.02 | 0.97 | 0.431 | 0.31 | 0.259 | 0.231 | 0.894 | 0.954 | 0.779 | 0.807
ABC-1 | 0.564 | 0.632 | 0.415 | 0.383 | 0.632 | 1.14 | 0.727 | 0.769 | 0.903 | 0.935 | 0.237 | 0.203 | 0.227 | 0.232 |  |  |  | 
BEN | 0.254 | 0.271 | 0.285 | 0.244 | 0.303 | 0.876 | 1.1 | 0.704 | 0.673 | 0.507 | 0.26 | 0.292 | 0.248 | 0.257 | 0.0784 | 0.0577 | 0.0776 | 0.0694
CAL-12T | 0.363 | 0.527 | 0.185 | 0.434 | 0.258 | 1.12 | 1.22 | 1.13 | 1.1 | 0.851 | 0.597 | 0.567 | 0.525 | 0.412 | 1.28 | 1.14 | 1.21 | 1.16
COR-L23 | 0.585 | 0.749 | 0.529 | 0.721 | 0.508 | 0.735 | 0.64 | 0.715 | 0.721 | 0.657 | 0.446 | 0.418 | 0.372 | 0.301 | 0.951 | 0.894 | 0.746 | 0.538
COR-L 105 | 0.728 | 0.781 | 0.826 |  | 0.855 | 1.06 | 0.94 | 0.763 | 1.06 | 0.807 | 0.477 | 0.494 | 0.398 | 0.371 | 0.776 | 0.724 | 0.842 | 0.767
Calu-6 |  |  |  |  |  | 0.993 | 1.03 | 0.889 | 0.918 | 0.818 |  |  |  |  | 0.772 | 0.802 | 0.726 | 0.473
ChaGo-K-1 | 0.676 | 0.655 | 0.596 | 0.528 | 0.392 |  |  |  |  |  | 0.474 | 0.51 | 0.494 | 0.388 | 1.05 | 1.06 | 0.908 | 0.745
EBC-1 |  |  |  |  |  | 0.783 | 0.806 | 0.885 | 0.75 | 0.817 |  |  |  |  | 0.37 | 0.384 | 0.415 | 0.219
EKVX | 0.981 | 0.845 | 0.888 | 0.804 | 0.924 | 0.866 | 0.936 | 0.775 | 0.802 | 0.71 | 0.261 | 0.246 | 0.227 | 0.23 | 0.96 | 0.982 | 0.841 | 0.66
EMC-BAC-2 | 1.12 | 1.2 | 1.13 | 1.11 | 0.812 | 0.752 | 0.74 | 0.636 | 0.701 | 0.62 | 0.51 | 0.515 | 0.445 | 0.384 | 1.08 | 1.14 | 1.06 | 0.901
EPLC-272H | 0.276 | 0.557 | 0.288 | 0.219 | 0.215 | 0.938 | 0.949 | 0.807 | 0.807 | 0.894 | 0.284 | 0.256 | 0.302 | 0.347 | 1.14 | 1.1 | 1.29 | 1.11
H3255 | 0.872 | 0.982 | 0.698 | 0.901 | 0.842 | 0.662 | 0.702 | 0.639 | 0.567 | 0.615 | 0.384 | 0.398 | 0.337 | 0.335 | 0.542 | 0.654 | 0.493 | 0.32
HARA | 0.558 | 1.1 | 0.0617 | 0.81 | 0.777 | 0.747 | 0.794 | 0.671 | 0.754 | 0.747 | 0.438 | 0.486 | 0.346 | 0.324 | 1.15 | 1.18 | 1.17 | 1.02
HCC-15 | 0.359 | 0.235 | 0.319 | 0.431 | 0.192 | 0.742 | 0.823 | 0.557 | 0.664 | 0.584 | 0.51 | 0.499 | 0.419 | 0.321 | 0.663 | 0.617 | 0.609 | 0.494
HCC-44 | 0.996 | 1.1 | 0.963 | 1.04 | 1.04 | 0.722 | 0.854 | 0.744 | 0.695 | 0.626 | 0.261 | 0.16 | 0.303 | 0.168 | 1.07 | 0.888 | 0.935 | 0.9
HCC-78 |  |  |  |  |  | 0.329 | 0.339 | 0.27 | 0.257 | 0.266 | 0.681 | 0.551 | 0.743 | 0.451 | 0.657 | 0.729 | 0.794 | 0.622
HCC-366 |  |  |  |  |  | 0.453 | 0.362 | 0.337 | 0.27 | 0.227 | 0.647 | 0.636 | 0.564 | 0.554 | 1.01 | 1.03 | 0.986 | 0.863
